Experiment [1] concerns KMS-12-BM cells. Nature of the experiment: CellTiter-Glo cell proliferation assay, KMS-12-BM. The format is cell-based. The note with it: Homo sapiens, 90 nM, 72 hrs. Here is the method: (§1) Cell proliferation was measured using the CellTiter-Glo® Luminescent Cell Viability Assay. The assay involved the addition of a single reagent (CellTiter-Glo® Reagent) directly to cells cultured in serum-supplemented medium. KMS-12-BM, OPM-2 and MOLP8 cells were cultured according to DSMZ recommendations and were seeded at 20,000 cells per well. Each compound evaluated was prepared as a DMSO stock solution (10 mM). Compounds were tested in triplicate on each plate, with a single concentration indicated in each table. Compound treatment (10.0 µL) was added to the cells from the 10x concentration of each compound. Plates were then incubated at 37° C., 5% CO2. After 72 hrs, cell plates were equilibrated at room temperature (rt) for approximately 30 mins. An equi-volume amount of CellTiter-Glo® Reagent (100 µL) was added to each well. Plates were mixed for 2 mins on an orbital shaker to induce cell lysis and then incubated at rt for 10 mins to stabilize the luminescent signal. Luminescence was recorded using a SpectraMAX, M5e plate reader according to CellTiter-Glo protocol.
For orientation: In ATP-based viability assays light output follows the ATP content of the culture.

In experiment [2] the test system is OPM-2 cells. Put plainly: CellTiter-Glo cell proliferation assay, OPM-2. The note with it: Homo sapiens; OPM-2, 50 nM, 72 hrs. It is filed as cell-based. How it is done:
as §1

The test system of experiment [3] is MOLP-8 cells. Put plainly: CellTiter-Glo cell proliferation assay, MOLP-8. The conditions noted are these: Homo sapiens; MOLP-8, 2 nM, 72 hrs. It is filed as cell-based. Here is the method:
as §1

Experiment [4] concerns A427 cells. Nature of the experiment: A427 cell growth study (DNA content, Hoechst 33258). The conditions noted are these: suboptimal doses, single agent, Day 6. The format is cell-based. How it is done: Experiment method: 3000 of A427 cells were seeded in 96-well pates and allowed to adhere overnight. Treatments with Compound (1A) and/or Triapine were added the next day. Cells were harvested at Day 6 and were assayed for DNA content using Hoechst 33258. Fluorescence intensity was read at excitation 346 nm and emission 460 nm using a plate reader. Data shown in FIG. 27 are representative of three independent experiments (raw fluorescence reading).

Experiment [5] deals with TOV21G xenograft. Nature of the experiment: TOV21G xenograft model. It is filed as in vivo, BALB/c nude mice. The conditions noted are these: 50 mg/kg i.p. once per week. How it is done:
TOV21G xenograft model was established by the inoculation of 200 µL of TOV-21G tumor cell suspension (5×10^6 cells/mouse, with 50% Matrigel) subcutaneously into the right subaxillary of BALB/c nude mice. When tumors reached approximately 100 to 150 mm^3, tumor bearing animals were randomly distributed into treatment groups of 10 animals each. Animals were orally dosed with vehicle or Compound (1A) at 60 mg/kg for 19 days, carboplatin at 50 mg/kg by the i.p. injection once per week, and Compound (1A) treatment in combination with carboplatin. Tumor volumes were evaluated twice per week to calculate tumor volume over time, and the mice were weighed twice per week as a surrogate for signs of toxicity.

The subject of experiment [6] is OVCAR3 xenograft. Put plainly: OVCAR3 ovarian tumor model, Doxorubicin combination. The format is in vivo, BABL/c nude mice. The conditions noted are these: OVCAR3, 2.5 mg/kg i.p. once per week for 4 weeks, single agent.
Method: OVCAR3 xenograft model was established by the inoculation of 200 µL of OVCAR3 tumor cell suspension (1×10^7 cells/mouse, with 50% Matrigel) subcutaneously into the right subaxillary of BABL/c nude mice. When tumors reached approximately 180.8 mm^3, tumor bearing animals were randomly distributed into treatment groups of 10 animals each. […] Tumor volumes were evaluated twice per week to calculate tumor volume over time, and the mice were weighed twice per week as a surrogate for signs of toxicity.
The test system of experiment [7] is x2-MDA-MB-468 tumor. Put plainly: x2 MDA-MB-468 TNBC tumor model, Niraparib combination. The format is in vivo, mouse. The conditions noted are these: x2-MDA-MB-468, 45 mg/kg orally, 7 days on, 7 days off for 4 cycles.
Method: The x2-MDA-MB-468 cells (ATCC-Chempartner) were maintained in vitro as a monolayer culture in DMEM medium added with 10% FBS, 100 U/mL penicillin and 100 µg/mL streptomycin at 37° C. in an atmosphere of 5% CO2 in air. Each mouse was implanted subcutaneously on right flank with 1 × 10^7 x2-MDA-MD-468 cells in 0.2 mL mixture of RPMI1640 medium with BD Matrigel (base medium: Matrigel=100 uL:100 uL) for tumor development. […] Tumor volumes were evaluated twice per week to calculate tumor volume over time, and the mice were weighed twice per week as a surrogate for signs of toxicity.

Molecules are shown by their SMILES.

Regarding `Nc1ccn([C@@H]2O[C@H](CO)[C@@H](O)C2(F)F)c(=O)n1` [Gemcitabine], the inhibition (commonly the percentage by which the read-out fell short of the control) at 0.09 µM in experiment [1] came out at 38%. This molecule showed an inhibition at 0.05 µM in experiment [2] of 35.1%. In experiment [3], this molecule showed an inhibition at 0.002 µM of 22%.
Regarding `NC(=S)N/N=C/c1ncccc1N` [Triapine], the A427 cell growth entry in experiment [4] is reported as “do not inhibit A427 cell growth”.
In the case of `N.N.O=C([O-])C1(C(=O)[O-])CCC1.[Pt+2]` [carboplatin], the TGI (usually how far tumour growth fell short of that in controls) in experiment [5] stood at 89.75%.
As for `COc1cccc2c1C(=O)c1c(O)c3c(c(O)c1C2=O)C[C@@](O)(C(=O)CO)C[C@@H]3O[C@H]1C[C@H](N)[C@H](O)[C@H](C)O1` [doxorubicin], the TGI in experiment [6] amounted to 43.11%.
With `NC(=O)c1cccc2cn(-c3ccc([C@@H]4CCCNC4)cc3)nc12` [niraparib], in experiment [7], the TGI is 47.7%.
